Measurements as given in patent US7291594B2 (Sanwa Kagaku Kenkyusho Co., Ltd., priority 2002, dated 2007).
One block for each compound: values may come before it. Where no end group is shown, it is not given here.

Assays:
mice [1] = test: Oral glucose tolerance test (OGTT) in mice after nasal administration of GLP-1 derivative; assay type: in vivo, mouse; design: Blood insulin level (5 minutes after glucose administration): unit not given here; settings: for Blood glucose level (area under blood concentration-time curve (AUC0-20 min)) / Blood insulin level (5 minutes after glucose administration): average ± standard error
Procedure: That is, the GLP-1 derivative was administered via the nose into mice, and evaluated in an oral glucose tolerance test (OGTT) where a change in blood glucose level in the mice after tolerated with glucose was measured.
At the time of the test, the solution was diluted to a predetermined concentration with physiological saline.
(§1) Mice were anesthetized lightly with ether. […] The GLP-1 derivative solution was inhaled by breathing through the nose into the mouse.
(§2) The blood glucose level was determined by collecting several μl blood from a cut in the tail just before the test and 5, 10 and 20 minutes after glucose administration, and measuring the blood with a small blood-glucose-level measuring instrument (Glutest Ace, manufactured by Sanwa Kagaku Kenkyusho Co., Ltd.).
(§3) The blood insulin level was determined by collecting 75 μl blood from an orbital venous plexus with a heparin-treated glass capillary 5 minutes after administration of glucose, then centrifuging the blood and measuring plasma insulin by EIA (Levis Mouse Insulin Kit, manufactured by Shibayagi Co., Ltd.).

mice [2] = test: OGTT in mice after nasal administration, with or without charge-regulated fat emulsion; assay type: in vivo, mouse; design: unit not given here
Procedure: The charge-regulated fat emulsion used was prepared according to JP-A 8-27018; that is, a charge-regulated fat emulsion at a final concentration of 8% was obtained by using 2% (w/w) phosphatidyl glycerol (sodium salt), 8% (w/w) neutral oil and 90% (w/w) water.
50 μl of 8% charge-regulated fat emulsion was mixed with 3.56 μl of 1 mM 8S-GLP-1+5R solution and 146.4 μl distilled water to give 2% charge-regulated fat emulsion solution containing 8S-GLP-1+5R at a final concentration of 0.0178 mM.
as §1
as §2, with “10, 20” for “5, 10”, “30” for “20”, “glucose” for “the blood”, “a” for “a small”
as §3, with “capillary 10” for “capillary 5”

mouse Langerhans islet = test: Insulin secretion stimulating activity using mouse Langerhans islet; assay type: cell-based; settings: 16.7 mM glucose
mice [3] = test: Blood glucose lowering activity in mice after subcutaneous administration and intravenous glucose; assay type: in vivo, mouse; settings: for Blood sugar level 20 minutes after tolerance with glucose: 0.5 g/kg glucose i.v., mouse
dipeptidyl peptidase IV = dipeptidyl peptidase IV (Homo sapiens, UniProt P27487); test: Resistance to dipeptidyl peptidase IV (residual cAMP activity); assay type: in vitro ADME
Procedure: Thereafter, the sample was extracted with a 2-fold excess volume of ethanol, centrifuged and evaporated into dryness by an evaporator. The resulting dried product was dissolved in distilled water containing 1% BSA, and its cyclic AMP production activity was measured according to Test Example 1, to calculate the residual activity (%).

trypsin = target: T1, trypsin (Sus scrofa, UniProt P00761); test: Resistance to trypsin (residual cAMP activity); assay type: in vitro ADME
T1 construct: purchased Promega V5113
Procedure: Then, 5 μl of 500 μg/ml trypsin (Promega Cat. No. V5113) was added to 100 μl of the solution, and the mixture was incubated at 37° C. for 1 hour. The reaction was terminated by adding 1200 μl of 71.5% (final 65%) ethanol, and the reaction solution was centrifuged at 15,000 rpm at 4° C. for 5 minutes to recover a supernatant which was then evaporated into dryness. The dried product was dissolved in distilled water and measured for cAMP activity by the method in Test Example 1, to determine the residual activity (%).

human GLP-1 receptor = target: T2, human GLP-1 receptor (Homo sapiens, UniProt P43220); test: Cyclic AMP-producing activity in human GLP-1 receptor-expressing CHO-K1 cells; assay type: cell-based
T2 construct: expressed in transfected cells; host or cells: CHO-K1 (Chinese hamster ovary)
T2 sequence (P43220 24-463): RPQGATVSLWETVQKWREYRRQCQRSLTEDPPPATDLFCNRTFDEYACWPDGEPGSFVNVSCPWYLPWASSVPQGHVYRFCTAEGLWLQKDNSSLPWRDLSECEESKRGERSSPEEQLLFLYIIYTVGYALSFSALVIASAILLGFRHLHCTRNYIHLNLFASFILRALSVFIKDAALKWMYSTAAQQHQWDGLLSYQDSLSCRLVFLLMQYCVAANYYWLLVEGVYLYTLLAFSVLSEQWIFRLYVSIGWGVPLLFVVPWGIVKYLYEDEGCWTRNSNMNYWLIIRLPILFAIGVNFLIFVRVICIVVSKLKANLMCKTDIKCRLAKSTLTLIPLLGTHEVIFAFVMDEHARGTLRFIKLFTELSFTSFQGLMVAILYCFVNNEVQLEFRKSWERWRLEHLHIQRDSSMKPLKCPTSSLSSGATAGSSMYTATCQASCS
Procedure: 10 μl of 5 N hydrochloric acid was added to terminate the incubation.

dipeptidyl peptidase IV, sequence (P27487 whole entry, species assumed): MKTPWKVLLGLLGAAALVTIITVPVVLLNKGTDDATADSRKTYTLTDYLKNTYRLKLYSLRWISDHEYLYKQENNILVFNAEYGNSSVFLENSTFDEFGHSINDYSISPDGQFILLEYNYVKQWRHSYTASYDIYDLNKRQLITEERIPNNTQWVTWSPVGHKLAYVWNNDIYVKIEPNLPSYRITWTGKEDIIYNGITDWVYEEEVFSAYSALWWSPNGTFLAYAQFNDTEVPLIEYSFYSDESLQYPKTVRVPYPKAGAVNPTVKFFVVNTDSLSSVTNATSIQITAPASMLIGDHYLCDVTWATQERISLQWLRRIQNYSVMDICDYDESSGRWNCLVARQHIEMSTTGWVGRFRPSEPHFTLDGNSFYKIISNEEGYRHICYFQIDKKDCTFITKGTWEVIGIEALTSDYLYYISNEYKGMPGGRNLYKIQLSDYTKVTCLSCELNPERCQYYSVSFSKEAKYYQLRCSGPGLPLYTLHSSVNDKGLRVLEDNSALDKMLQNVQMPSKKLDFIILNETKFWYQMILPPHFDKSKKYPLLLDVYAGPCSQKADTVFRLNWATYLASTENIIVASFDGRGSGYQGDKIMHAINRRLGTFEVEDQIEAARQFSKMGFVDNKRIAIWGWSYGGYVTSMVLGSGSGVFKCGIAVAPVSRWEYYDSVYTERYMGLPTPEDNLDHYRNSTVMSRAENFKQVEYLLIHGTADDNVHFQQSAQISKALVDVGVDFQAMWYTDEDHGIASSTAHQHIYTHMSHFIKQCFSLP
T1 sequence (P00761 9-231): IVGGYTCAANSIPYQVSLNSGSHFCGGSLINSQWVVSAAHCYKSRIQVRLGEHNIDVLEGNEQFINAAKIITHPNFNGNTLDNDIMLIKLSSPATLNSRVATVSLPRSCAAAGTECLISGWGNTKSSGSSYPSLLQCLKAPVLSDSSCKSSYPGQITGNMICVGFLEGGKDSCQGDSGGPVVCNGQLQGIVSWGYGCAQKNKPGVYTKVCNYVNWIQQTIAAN

Compound: [Ser^8]-GLP-1 (7-35)-Lys-Lys-Lys-Lys-Lys-Lys-Lys-Arg-NH2 (HSEGTFTSDVSSYLEGQAAKEFIAWLVKGKKKKKKKR-NH2) [8S, des36R-GLP-1 + 7KR]
Blood glucose level (area under blood concentration-time curve (AUC0-20 min)) (mice [1]; 1.07 nmol/mouse): 457 ± 69 mg·min/dL
Blood insulin level (5 minutes after glucose administration) (mice [1]; 1.07 nmol/mouse): 1604 ± 344

Compound: [Ser^8]-GLP-1 (7-35)-Arg-Arg-Arg-NH2 (HSEGTFTSDVSSYLEGQAAKEFIAWLVKGRRR-NH2) [8S-GLP-1 + 2R]
Blood glucose level (area under blood concentration-time curve (AUC0-20 min)) (mice [1]; 1.07 nmol/mouse): 535 ± 58 mg·min/dL
Blood insulin level (5 minutes after glucose administration) (mice [1]; 1.07 nmol/mouse): 957 ± 86

Compound: [Ser^8]-GLP-1 (7-35)-Arg-Lys-Lys-NH2 (HSEGTFTSDVSSYLEGQAAKEFIAWLVKGRKK-NH2) [8S-GLP-1 + 2K]
Blood glucose level (area under blood concentration-time curve (AUC0-20 min)) (mice [1]; 1.07 nmol/mouse): 598 ± 63 mg·min/dL
Blood insulin level (5 minutes after glucose administration) (mice [1]; 1.07 nmol/mouse): 862 ± 150

Compound: [Ser^8]-GLP-1 (7-35)-Lys-Lys-Arg-NH2 (HSEGTFTSDVSSYLEGQAAKEFIAWLVKGKKR-NH2) [8S, des36R-GLP-1 + 2KR]
Blood glucose level (area under blood concentration-time curve (AUC0-20 min)) (mice [1]; 1.07 nmol/mouse): 564 ± 52 mg·min/dL
Blood insulin level (5 minutes after glucose administration) (mice [1]; 1.07 nmol/mouse): 1243 ± 309

Compound: [Ser^8]-GLP-1 (7-35)-Arg-Arg-Arg-Arg-Arg-NH2 (HSEGTFTSDVSSYLEGQAAKEFIAWLVKGRRRRR-NH2) [8S-GLP-1 + 4R]
blood glucose depressing action (in words) (mice [1]): strongest blood glucose depressing action
Blood glucose level (area under blood concentration-time curve (AUC0-20 min)) (mice [1]; 1.07 nmol/mouse): 388 ± 54 mg·min/dL
Blood insulin level (5 minutes after glucose administration) (mice [1]; 1.07 nmol/mouse): 1713 ± 430

Compound: [Ser^8]-GLP-1 (7-35)-Lys-Lys-Lys-Lys-Lys-Arg-NH2 (HSEGTFTSDVSSYLEGQAAKEFIAWLVKGKKKKKR-NH2) [8S, des36R-GLP-1 + 5KR]
blood glucose depressing action (in words) (mice [1]): strongest blood glucose depressing action
Blood glucose level (area under blood concentration-time curve (AUC0-20 min)) (mice [1]; 1.07 nmol/mouse): 404 ± 71 mg·min/dL
Blood insulin level (5 minutes after glucose administration) (mice [1]; 1.07 nmol/mouse): 2229 ± 346

Compound: [Ser^8]-GLP-1 (7-35)-Arg-Arg-Arg-Arg-Arg-Arg-Arg-NH2 (HSEGTFTSDVSSYLEGQAAKEFIAWLVKGRRRRRRR-NH2) [8S-GLP-1 + 6R]
Blood glucose level (area under blood concentration-time curve (AUC0-20 min)) (mice [1]; 1.07 nmol/mouse): 559 ± 27 mg·min/dL
Blood insulin level (5 minutes after glucose administration) (mice [1]; 1.07 nmol/mouse): 1633 ± 449

Compound: [Ser^8]-GLP-1 (7-35)-Arg-Arg-Arg-Arg-NH2 (HSEGTFTSDVSSYLEGQAAKEFIAWLVKGRRRR-NH2) [8S-GLP-1 + 3R]
Blood glucose level (area under blood concentration-time curve (AUC0-20 min)) (mice [1]; 1.07 nmol/mouse): 509 ± 92 mg·min/dL
Blood insulin level (5 minutes after glucose administration) (mice [1]; 1.07 nmol/mouse): 1359 ± 318

Compound: [Ser^8]-GLP-1 (7-35)-Lys-Lys-Lys-Arg-NH2 (HSEGTFTSDVSSYLEGQAAKEFIAWLVKGKKKR-NH2) [8S, des36R-GLP-1 + 3KR]
Blood glucose level (area under blood concentration-time curve (AUC0-20 min)) (mice [1]; 1.07 nmol/mouse): 557 ± 53 mg·min/dL
Blood insulin level (5 minutes after glucose administration) (mice [1]; 1.07 nmol/mouse): 1176 ± 233

Compound: GLP-1 (7-36)—NH2 [reference compound]
Blood glucose level (area under blood concentration-time curve (AUC0-20 min)) (mice [1]; 1.07 nmol/mouse): 697 ± 94 mg·min/dL
Blood insulin level (5 minutes after glucose administration) (mice [1]; 1.07 nmol/mouse): 662 ± 91
Blood glucose level (area under blood concentration-time curve (AUC0-20 min)) (mice [1]; 10.7 nmol/mouse): 399 ± 35 mg·min/dL
Blood insulin level (5 minutes after glucose administration) (mice [1]; 10.7 nmol/mouse): 743 ± 147
Blood insulin level (10 minutes after glucose administration) (mice [2]; 10.7 nmol/mouse, without charge-regulated fat emulsion): 377 ± 41
Amount of insulin secreted (mouse Langerhans islet; assay concentration −8 log M): 6.71 ng/islet/30 min
Amount of insulin secreted (mouse Langerhans islet; assay concentration −9 log M): 5.11 ng/islet/30 min
Amount of insulin secreted (mouse Langerhans islet; assay concentration −10 log M): 4.11 ng/islet/30 min
Blood sugar level 20 minutes after tolerance with glucose (mice [3]; 5 μg/kg): 119 mg/dL
Blood sugar level 20 minutes after tolerance with glucose (mice [3]; 10 μg/kg): 103 mg/dL
Blood sugar level 20 minutes after tolerance with glucose (mice [3]; 20 μg/kg): 75 mg/dL
Residual activity (%) (dipeptidyl peptidase IV; DPP IV + (40 μU/μl, 37° C., 60 minutes)): 25%
Residual activity (%) (dipeptidyl peptidase IV; DPP IV −(not treated)): 100%

Compound: [Ser^8]-GLP-1 (7-35)-Lys-Lys-Lys-Lys-Lys-Lys-Lys-Lys-Lys-Lys-Arg-NH2 (HSEGTFTSDVSSYLEGQAAKEFIAWLVKGKKKKKKKKKKR-NH2) [8S, des36R-GLP-1 + 10KR]
Blood glucose level (area under blood concentration-time curve (AUC0-20 min)) (mice [1]; 1.07 nmol/mouse): 492 ± 106 mg·min/dL
Blood insulin level (5 minutes after glucose administration) (mice [1]; 1.07 nmol/mouse): 2379 ± 520

Compound: [Ser^8]-GLP-1 (7-35)-Lys-Arg-NH2 (HSEGTFTSDVSSYLEGQAAKEFIAWLVKGKR-NH2) [8S, des36R-GLP-1 + 1KR]
Blood glucose level (area under blood concentration-time curve (AUC0-20 min)) (mice [1]; 1.07 nmol/mouse): 611 ± 51 mg·min/dL
Blood insulin level (5 minutes after glucose administration) (mice [1]; 1.07 nmol/mouse): 1349 ± 244

Residual activity (%) (trypsin; Trypsin + (37° C., 1 hour, pH 7.8)): 94.8%
Residual activity (%) (trypsin; Trypsin − (not treated)): 100%
Compound: CC[C@H](C)[C@H](NC(=O)[C@H](Cc1ccccc1)NC(=O)[C@H](CCC(=O)O)NC(=O)[C@H](CCC(N)=O)NC(=O)[C@H](C)NC(=O)[C@H](C)NC(=O)[C@H](CCC(N)=O)NC(=O)CNC(=O)[C@H](CCC(=O)O)NC(=O)[C@H](CC(C)C)NC(=O)[C@H](Cc1ccc(O)cc1)NC(=O)[C@H](CO)NC(=O)[C@H](CO)NC(=O)[C@@H](NC(=O)[C@H](CC(=O)O)NC(=O)[C@H](CO)NC(=O)[C@@H](NC(=O)[C@H](Cc1ccccc1)NC(=O)[C@@H](NC(=O)CNC(=O)[C@H](CCC(=O)O)NC(=O)[C@H](C)NC(=O)[C@@H](N)Cc1c[nH]cn1)[C@@H](C)O)[C@@H](C)O)C(C)C)C(=O)N[C@@H](C)C(=O)N[C@@H](Cc1c[nH]c2ccccc12)C(=O)N[C@@H](CC(C)C)C(=O)N[C@H](C(=O)N[C@@H](CC(N)=O)C(=O)NCC(=O)N[C@@H](CCCNC(=N)N)C(N)=O)C(C)C [26Q34N-GLP-1, [Gln^26, Asn^34]-GLP-1 (7-35)-Arg-NH2]

in vitro activity of producing cyclic AMP (in words) (human GLP-1 receptor): the activity was maintained
Amount of cAMP produced (human GLP-1 receptor; concentration −8 log M): 79.2 pmol/10^5 cell/30 min
Amount of cAMP produced (human GLP-1 receptor; concentration −9 log M): 76.1 pmol/10^5 cell/30 min
Amount of cAMP produced (human GLP-1 receptor; concentration −10 log M): 24.2 pmol/10^5 cell/30 min
Amount of cAMP produced (human GLP-1 receptor; concentration −11 log M): 4.7 pmol/10^5 cell/30 min
Amount of cAMP produced (human GLP-1 receptor; concentration −12 log M): 0.6 pmol/10^5 cell/30 min
Compound: [Ser^8, Gln^26, Asn^34]-GLP-1 (7-35)-Arg (HSEGTFTSDVSSYLEGQAAQEFIAWLVNGR; ends and bridges not checked) [8S26Q34N-GLP-1]
insulin secretion stimulating activity compared with naturally occurring GLP-1 (in words) (mouse Langerhans islet; 30 minutes): stronger insulin secretion stimulating activity than that of the naturally occurring GLP-1
Amount of insulin secreted (mouse Langerhans islet; assay concentration −8 log M): 9.85 ng/islet/30 min
Amount of insulin secreted (mouse Langerhans islet; assay concentration −9 log M): 6.61 ng/islet/30 min
Amount of insulin secreted (mouse Langerhans islet; assay concentration −10 log M): 3.64 ng/islet/30 min
blood glucose lowering activity in mice (in words) (mice [3]): concentration-dependent depression in blood glucose level
Blood sugar level 20 minutes after tolerance with glucose (mice [3]; 5 μg/kg): 110 mg/dL
Blood sugar level 20 minutes after tolerance with glucose (mice [3]; 10 μg/kg): 95 mg/dL
Blood sugar level 20 minutes after tolerance with glucose (mice [3]; 20 μg/kg): 21 mg/dL

Compound: [Ser^8]-GLP-1 (7-35)-Arg-Arg-Arg-Arg-Arg-Arg-Arg-Arg-Arg-NH2 (HSEGTFTSDVSSYLEGQAAKEFIAWLVKGRRRRRRRRR-NH2) [8S-GLP-1 + 8R]
Blood glucose level (area under blood concentration-time curve (AUC0-20 min)) (mice [1]; 1.07 nmol/mouse): 487 ± 32 mg·min/dL
Blood insulin level (5 minutes after glucose administration) (mice [1]; 1.07 nmol/mouse): 1882 ± 402

Compound: [Ser^8]-GLP-1 (7-35)-Arg-Arg-Arg-Arg-Arg-Arg-NH2 (HSEGTFTSDVSSYLEGQAAKEFIAWLVKGRRRRRR-NH2) [8S-GLP-1 + 5R]
Blood glucose level (area under blood concentration-time curve (AUC0-20 min)) (mice [1]; 1.07 nmol/mouse): 483 ± 26 mg·min/dL
Blood insulin level (5 minutes after glucose administration) (mice [1]; 1.07 nmol/mouse): 1504 ± 250
Blood insulin level (10 minutes after glucose administration) (mice [2]; 0.357 nmol/mouse, used in combination with 2% charge-regulated fat emulsion): 560 ± 81
Blood insulin level (10 minutes after glucose administration) (mice [2]; 0.357 nmol/mouse, without charge-regulated fat emulsion): 506 ± 34
